Earlier results as cited in US20070254026A1, “SOFTGEL CAPSULES” (FORBES MEDI-TECH INC., priority 2006, published 2007).

Tested on: benign prostate hypertrophy
Settings: Berges.2000; Coleman.2002

CC[C@H](CC[C@@H](C)[C@H]1CC[C@H]2[C@@H]3CC=C4C[C@@H](O)CC[C@]4(C)[C@H]3CC[C@]12C)C(C)C [sitosterol, β-sitosterol]
effective dose reducing symptoms of benign prostate hypertrophy: 20 to 60 mg per day
